Assays:
BT-474 cells = assay: IC50 in BT-474 cells, 72 hours incubation; type: cell-based
Method: The compounds described herein were synthesized as described in Example 1. The IC50 values were measured in MDA-MB-468, BT-474, and MCF-7 cells by incubating a series of concentrations of the corresponding compounds for 72 hours.
In Tables 1 and 2, “−” represents IC50 or EC50 values greater than 10 μM; “+” represents IC50 or EC50 values from greater than 1 μM to 10 μM; “++” represents IC50 or EC50 values from 0.1 μM to 1 μM; and “+++” represents IC50 or EC50 values less than 0.1 μM.

ROCK1 = biological target: T1, ROCK1 (Homo sapiens, UniProt Q13464); assay: Kinase-Glo Luminescent Kinase Assay; type: biochemical
T1 construct: purchased Promega
Method: (§1) SI-12 was also tested for its ability to disrupt kinase activity. The effects of the compound were tested on a panel of 24 kinases using a Kinase-Glo Luminescent Kinase Assay system (Promega; Madison, Wis.). SI-12 was tested, at concentrations of 1000 nM, 50 nM, and 5 nM, for its ability to interfere with recombinant kinases in the assay system. The amount of ATP to ADP conversion in the presence of SI-12 was compared to a DMSO vehicle control. The values shown in Table 3 represent the percentage of kinase activity compared to a DMSO vehicle control.
(§2) In Table 3, “−” represents less than 20% inhibition; “+” represents from 20% to 40% inhibition; “++” represents from 40% to 60% inhibition; and “+++” represents greater than 60% inhibition.

LCK = biological target: T2, LCK (Homo sapiens, UniProt P06239); assay: Kinase-Glo Luminescent Kinase Assay; type: biochemical
T2 construct: purchased Promega
Method: as §1, §2

PAK1/CDC42 = biological target: T3, PAK1/CDC42 (Homo sapiens, UniProt Q13153); assay: Kinase-Glo Luminescent Kinase Assay; type: biochemical
T3 construct: purchased Promega
Method: as §1, §2

CK1y1 = biological target: T4, CK1y1 (Homo sapiens, UniProt Q9HCP0); assay: Kinase-Glo Luminescent Kinase Assay; type: biochemical
T4 construct: purchased Promega
Method: as §1, §2

CHK1 = biological target: T5, CHK1 (Homo sapiens, UniProt O14757); assay: Kinase-Glo Luminescent Kinase Assay; type: biochemical
T5 construct: purchased Promega
T5 sequence (O14757 1-476): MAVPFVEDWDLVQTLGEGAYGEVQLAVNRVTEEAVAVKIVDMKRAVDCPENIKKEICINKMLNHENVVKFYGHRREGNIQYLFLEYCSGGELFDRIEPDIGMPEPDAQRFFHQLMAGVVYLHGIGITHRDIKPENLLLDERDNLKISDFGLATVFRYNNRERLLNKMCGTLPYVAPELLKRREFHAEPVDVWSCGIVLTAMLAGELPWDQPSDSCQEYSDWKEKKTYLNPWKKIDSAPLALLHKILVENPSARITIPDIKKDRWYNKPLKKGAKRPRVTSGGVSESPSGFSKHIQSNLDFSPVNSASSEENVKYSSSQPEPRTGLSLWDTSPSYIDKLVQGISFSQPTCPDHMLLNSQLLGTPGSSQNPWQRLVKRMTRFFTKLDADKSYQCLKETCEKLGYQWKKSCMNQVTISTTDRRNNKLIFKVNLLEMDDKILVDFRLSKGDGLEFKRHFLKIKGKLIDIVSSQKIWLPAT
Method: as §1, §2

Aurora A = biological target: T6, Aurora A (Homo sapiens, UniProt O14965); assay: Kinase-Glo Luminescent Kinase Assay; type: biochemical
T6 construct: purchased Promega
T6 sequence (O14965 1-403): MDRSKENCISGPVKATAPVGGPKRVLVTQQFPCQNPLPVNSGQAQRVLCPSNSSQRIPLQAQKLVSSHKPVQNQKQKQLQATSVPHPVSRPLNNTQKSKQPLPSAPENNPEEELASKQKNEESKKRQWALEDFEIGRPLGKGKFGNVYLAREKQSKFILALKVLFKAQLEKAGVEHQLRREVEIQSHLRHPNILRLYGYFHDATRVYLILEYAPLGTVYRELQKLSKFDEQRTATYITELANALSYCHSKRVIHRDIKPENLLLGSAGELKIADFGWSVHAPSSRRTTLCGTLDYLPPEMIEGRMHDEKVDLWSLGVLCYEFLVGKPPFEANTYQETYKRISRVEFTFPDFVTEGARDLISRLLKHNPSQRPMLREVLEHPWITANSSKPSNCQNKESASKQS
Method: as §1, §2

PKCa = biological target: T7, PKCa (Homo sapiens, UniProt P17252); assay: Kinase-Glo Luminescent Kinase Assay; type: biochemical
T7 construct: purchased Promega
Method: as §1, §2

IRAK4 = biological target: T8, IRAK4 (Homo sapiens, UniProt Q9NWZ3); assay: Kinase-Glo Luminescent Kinase Assay; type: biochemical
T8 construct: purchased Promega
T8 sequence (Q9NWZ3 1-460): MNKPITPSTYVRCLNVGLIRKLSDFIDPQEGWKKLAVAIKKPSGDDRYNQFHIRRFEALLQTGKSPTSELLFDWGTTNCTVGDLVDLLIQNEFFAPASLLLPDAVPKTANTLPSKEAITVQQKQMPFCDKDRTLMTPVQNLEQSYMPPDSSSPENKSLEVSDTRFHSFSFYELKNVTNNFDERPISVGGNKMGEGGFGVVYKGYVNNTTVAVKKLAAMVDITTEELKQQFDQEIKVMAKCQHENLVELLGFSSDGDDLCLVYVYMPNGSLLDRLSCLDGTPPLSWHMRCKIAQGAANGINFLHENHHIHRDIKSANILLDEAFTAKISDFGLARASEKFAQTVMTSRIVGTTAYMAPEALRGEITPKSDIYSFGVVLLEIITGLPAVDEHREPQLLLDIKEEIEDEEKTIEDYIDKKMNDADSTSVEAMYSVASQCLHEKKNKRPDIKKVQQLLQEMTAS
Method: as §1, §2

GSK3B = biological target: T9, GSK3B (Homo sapiens, UniProt P49841); assay: Kinase-Glo Luminescent Kinase Assay; type: biochemical
T9 construct: purchased Promega
Method: as §1, §2

T3 sequence (Q13153 whole entry): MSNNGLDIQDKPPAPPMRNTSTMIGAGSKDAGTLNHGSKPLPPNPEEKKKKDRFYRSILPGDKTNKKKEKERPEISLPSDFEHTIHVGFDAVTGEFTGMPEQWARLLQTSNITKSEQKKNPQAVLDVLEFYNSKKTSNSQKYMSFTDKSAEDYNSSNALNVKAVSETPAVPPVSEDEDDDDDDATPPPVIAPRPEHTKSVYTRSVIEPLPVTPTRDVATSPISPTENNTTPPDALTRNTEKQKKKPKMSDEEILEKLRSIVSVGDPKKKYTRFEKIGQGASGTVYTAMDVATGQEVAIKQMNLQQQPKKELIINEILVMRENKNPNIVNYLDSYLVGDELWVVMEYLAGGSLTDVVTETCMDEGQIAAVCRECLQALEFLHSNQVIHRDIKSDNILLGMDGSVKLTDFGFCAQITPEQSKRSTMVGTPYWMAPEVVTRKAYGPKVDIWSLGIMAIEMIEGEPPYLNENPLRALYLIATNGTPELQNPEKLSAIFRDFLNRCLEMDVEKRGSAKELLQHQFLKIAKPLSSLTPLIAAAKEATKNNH
T1 sequence (Q13464 whole entry): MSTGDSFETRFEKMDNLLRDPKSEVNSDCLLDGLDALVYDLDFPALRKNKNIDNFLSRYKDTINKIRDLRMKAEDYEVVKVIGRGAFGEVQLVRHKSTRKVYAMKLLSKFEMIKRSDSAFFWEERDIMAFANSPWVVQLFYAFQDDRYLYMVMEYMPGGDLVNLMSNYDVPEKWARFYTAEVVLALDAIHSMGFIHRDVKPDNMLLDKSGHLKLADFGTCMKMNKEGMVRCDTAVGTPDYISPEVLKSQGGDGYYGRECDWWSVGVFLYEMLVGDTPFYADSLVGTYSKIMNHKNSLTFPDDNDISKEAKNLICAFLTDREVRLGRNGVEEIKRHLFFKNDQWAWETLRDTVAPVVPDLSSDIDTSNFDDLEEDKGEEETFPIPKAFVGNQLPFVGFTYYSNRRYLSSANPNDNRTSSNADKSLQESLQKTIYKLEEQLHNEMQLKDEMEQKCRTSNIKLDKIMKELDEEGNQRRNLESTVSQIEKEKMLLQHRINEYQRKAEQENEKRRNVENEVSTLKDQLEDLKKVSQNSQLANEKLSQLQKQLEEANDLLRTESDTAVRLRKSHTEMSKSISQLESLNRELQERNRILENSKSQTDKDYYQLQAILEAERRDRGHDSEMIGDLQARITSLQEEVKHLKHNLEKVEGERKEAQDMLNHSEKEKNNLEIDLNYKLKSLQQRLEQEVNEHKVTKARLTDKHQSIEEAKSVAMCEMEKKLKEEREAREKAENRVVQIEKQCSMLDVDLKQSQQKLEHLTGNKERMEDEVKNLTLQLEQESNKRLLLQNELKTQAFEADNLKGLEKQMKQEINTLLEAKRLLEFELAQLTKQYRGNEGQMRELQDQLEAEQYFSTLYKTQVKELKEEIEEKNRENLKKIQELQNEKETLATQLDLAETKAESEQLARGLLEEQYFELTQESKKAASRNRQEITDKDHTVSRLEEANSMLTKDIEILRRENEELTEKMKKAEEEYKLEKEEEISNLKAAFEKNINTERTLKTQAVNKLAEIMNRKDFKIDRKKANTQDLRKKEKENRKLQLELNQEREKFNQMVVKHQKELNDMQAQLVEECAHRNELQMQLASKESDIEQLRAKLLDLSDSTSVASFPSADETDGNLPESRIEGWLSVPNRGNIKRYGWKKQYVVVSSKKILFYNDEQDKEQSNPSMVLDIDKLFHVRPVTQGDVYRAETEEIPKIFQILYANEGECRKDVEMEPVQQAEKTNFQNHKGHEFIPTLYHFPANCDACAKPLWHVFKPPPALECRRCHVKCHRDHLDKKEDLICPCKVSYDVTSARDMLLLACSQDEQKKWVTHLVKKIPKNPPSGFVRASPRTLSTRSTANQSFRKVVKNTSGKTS
T2 sequence (P06239 whole entry): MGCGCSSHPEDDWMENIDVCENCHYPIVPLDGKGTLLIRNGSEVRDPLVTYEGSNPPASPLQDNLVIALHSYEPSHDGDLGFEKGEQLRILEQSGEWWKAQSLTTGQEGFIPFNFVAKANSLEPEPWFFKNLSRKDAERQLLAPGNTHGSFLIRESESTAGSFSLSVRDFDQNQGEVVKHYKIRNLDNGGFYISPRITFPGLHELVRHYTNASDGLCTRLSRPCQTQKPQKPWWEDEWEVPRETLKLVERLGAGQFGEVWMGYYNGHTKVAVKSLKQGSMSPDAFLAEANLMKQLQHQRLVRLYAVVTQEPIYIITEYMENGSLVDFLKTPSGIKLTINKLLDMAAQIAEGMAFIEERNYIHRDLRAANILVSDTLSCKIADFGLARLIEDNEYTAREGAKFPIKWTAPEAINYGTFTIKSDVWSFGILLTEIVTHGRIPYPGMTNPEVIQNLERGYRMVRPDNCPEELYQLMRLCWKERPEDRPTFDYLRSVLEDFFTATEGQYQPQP
T4 sequence (Q9HCP0 whole entry): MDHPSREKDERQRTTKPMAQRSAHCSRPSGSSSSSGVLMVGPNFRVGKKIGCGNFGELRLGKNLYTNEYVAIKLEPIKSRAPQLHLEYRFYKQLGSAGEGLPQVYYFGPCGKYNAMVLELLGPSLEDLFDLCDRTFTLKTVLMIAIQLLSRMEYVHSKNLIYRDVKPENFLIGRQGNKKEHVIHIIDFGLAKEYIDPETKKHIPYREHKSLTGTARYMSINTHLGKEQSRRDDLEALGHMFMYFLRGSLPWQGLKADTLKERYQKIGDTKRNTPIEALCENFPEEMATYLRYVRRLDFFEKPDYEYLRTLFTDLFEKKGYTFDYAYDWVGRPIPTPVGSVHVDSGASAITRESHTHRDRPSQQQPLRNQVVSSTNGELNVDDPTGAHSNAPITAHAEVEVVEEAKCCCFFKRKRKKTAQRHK
T9 sequence (P49841 whole entry): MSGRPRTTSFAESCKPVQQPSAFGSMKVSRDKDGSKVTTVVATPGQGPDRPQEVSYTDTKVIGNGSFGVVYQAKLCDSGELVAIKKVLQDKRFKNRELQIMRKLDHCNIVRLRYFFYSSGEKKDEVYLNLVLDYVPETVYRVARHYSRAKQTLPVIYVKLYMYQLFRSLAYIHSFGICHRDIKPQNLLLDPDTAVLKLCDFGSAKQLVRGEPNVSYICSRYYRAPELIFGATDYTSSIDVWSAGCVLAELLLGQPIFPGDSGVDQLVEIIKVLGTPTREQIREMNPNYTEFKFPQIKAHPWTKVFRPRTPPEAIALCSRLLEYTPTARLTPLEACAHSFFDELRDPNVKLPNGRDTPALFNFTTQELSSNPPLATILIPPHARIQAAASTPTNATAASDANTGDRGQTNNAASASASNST

In the case of `CC(=NNc1nc2cc(F)c(F)cc2n1C)c1ccc(F)cn1` [SI-12], the IC50 (BT-474 cells) is reported as < 100 nM, the ROCK1 kinase inhibition (ROCK1; 5 nM) is reported as “+ (from 20% to 40% inhibition)” and the ROCK1 kinase inhibition (ROCK1; 50 nM) is reported as “+ (from 20% to 40% inhibition)”. The ROCK1 kinase inhibition (ROCK1; 1000 nM) was “+ (from 20% to 40% inhibition)”, the LCK kinase inhibition (LCK; 5 nM) was “− (less than 20% inhibition)” and the LCK kinase inhibition (LCK; 50 nM) was “− (less than 20% inhibition)”. For the same compound, the LCK kinase inhibition (LCK; 1000 nM) was “− (less than 20% inhibition)”, the PAK1/CDC42 kinase inhibition (PAK1/CDC42; 5 nM) was “− (less than 20% inhibition)” and the PAK1/CDC42 kinase inhibition (PAK1/CDC42; 50 nM) was “− (less than 20% inhibition)”. The PAK1/CDC42 kinase inhibition (PAK1/CDC42; 1000 nM) was “− (less than 20% inhibition)”, the CK1y1 kinase inhibition (CK1y1; 5 nM) was “− (less than 20% inhibition)” and the CK1y1 kinase inhibition (CK1y1; 50 nM) was “− (less than 20% inhibition)”. For the same compound, the CK1y1 kinase inhibition (CK1y1; 1000 nM) was “− (less than 20% inhibition)”, the CHK1 kinase inhibition (CHK1; 5 nM) was “− (less than 20% inhibition)” and the CHK1 kinase inhibition (CHK1; 50 nM) was “− (less than 20% inhibition)”. For the same compound, the CHK1 kinase inhibition (CHK1; 1000 nM) was “− (less than 20% inhibition)”, the “Aurora A kinase inhibition” value (Aurora A; 5 nM) was “− (less than 20% inhibition)” and the “Aurora A kinase inhibition” value (Aurora A; 50 nM) was “− (less than 20% inhibition)”. For the same compound, the “Aurora A kinase inhibition” value (Aurora A; 1000 nM) was “− (less than 20% inhibition)”, the PKCa kinase inhibition (PKCa; 5 nM) was “− (less than 20% inhibition)” and the PKCa kinase inhibition (PKCa; 50 nM) was “− (less than 20% inhibition)”. For the same compound, the PKCa kinase inhibition (PKCa; 1000 nM) was “− (less than 20% inhibition)”, the IRAK4 kinase inhibition (IRAK4; 5 nM) was “− (less than 20% inhibition)” and the IRAK4 kinase inhibition (IRAK4; 50 nM) was “− (less than 20% inhibition)”. The IRAK4 kinase inhibition (IRAK4; 1000 nM) was “− (less than 20% inhibition)”, the GSK3B kinase inhibition (GSK3B; 5 nM) was “− (less than 20% inhibition)” and the GSK3B kinase inhibition (GSK3B; 50 nM) was “− (less than 20% inhibition)”. The GSK3B kinase inhibition (GSK3B; 1000 nM) was “− (less than 20% inhibition)”.

Source: patent US11253517B2, “Small molecule regulators of steroid receptor coactivators and methods of use thereof” (BAYLOR COLLEGE OF MEDICINE, priority 2016, dated 2022)
